According to ChEMBL document CHEMBL1159120, “2,4-Diamino-5-methyl-6-substituted arylthio-furo[2,3-d]pyrimidines as novel classical and nonclassical antifolates as potential dual thymidylate synthase and dihydrofolate reductase inhibitors” (Bioorg Med Chem, 2010):

Experiments:
[1] = target: T1, Dihydrofolate reductase (Mycobacterium avium) (UniProt O30463); assay: Inhibition of Mycobacterium avium DHFR at 31 uM under 37 degC by spectrophotometry
T1 sequence (whole entry): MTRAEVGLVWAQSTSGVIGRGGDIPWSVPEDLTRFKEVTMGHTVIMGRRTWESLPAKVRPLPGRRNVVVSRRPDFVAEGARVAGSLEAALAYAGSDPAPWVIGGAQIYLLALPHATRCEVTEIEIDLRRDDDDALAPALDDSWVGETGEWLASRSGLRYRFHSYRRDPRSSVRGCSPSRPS

[2] = target: T2, Dihydrofolate reductase (Pneumocystis carinii) (UniProt P16184); assay: Inhibition of Pneumocystis carinii DHFR at 31 uM under 37 degC by spectrophotometry
T2 sequence (whole entry): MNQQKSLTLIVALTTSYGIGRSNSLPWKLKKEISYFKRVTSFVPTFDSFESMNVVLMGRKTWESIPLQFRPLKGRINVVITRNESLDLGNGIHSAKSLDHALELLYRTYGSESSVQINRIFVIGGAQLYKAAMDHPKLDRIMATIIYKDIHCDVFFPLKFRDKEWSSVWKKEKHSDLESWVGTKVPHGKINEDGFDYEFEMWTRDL

[3] = target: T3, Dihydrofolate reductase (Pneumocystis carinii, UniProt P16184)
T3 sequence (P16184 whole entry): T2 sequence (whole entry)
Description: Inhibition of Pneumocystis carinii DHFR at 37 degC by spectrophotometry

[4] = target: T4, Dihydrofolate reductase (Rattus norvegicus, UniProt Q920D2)
T4 sequence (Q920D2 whole entry): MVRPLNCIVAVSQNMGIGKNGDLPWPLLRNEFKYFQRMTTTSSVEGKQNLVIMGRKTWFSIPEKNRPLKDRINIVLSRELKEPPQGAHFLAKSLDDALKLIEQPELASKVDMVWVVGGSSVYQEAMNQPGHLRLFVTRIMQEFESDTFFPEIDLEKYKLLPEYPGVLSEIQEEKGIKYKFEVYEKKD
Description: Inhibition of rat liver DHFR at 37 degC by spectrophotometry

[5] = target: T5, Bifunctional dihydrofolate reductase-thymidylate synthase (Toxoplasma gondii, UniProt Q07422)
T5 sequence (Q07422 whole entry): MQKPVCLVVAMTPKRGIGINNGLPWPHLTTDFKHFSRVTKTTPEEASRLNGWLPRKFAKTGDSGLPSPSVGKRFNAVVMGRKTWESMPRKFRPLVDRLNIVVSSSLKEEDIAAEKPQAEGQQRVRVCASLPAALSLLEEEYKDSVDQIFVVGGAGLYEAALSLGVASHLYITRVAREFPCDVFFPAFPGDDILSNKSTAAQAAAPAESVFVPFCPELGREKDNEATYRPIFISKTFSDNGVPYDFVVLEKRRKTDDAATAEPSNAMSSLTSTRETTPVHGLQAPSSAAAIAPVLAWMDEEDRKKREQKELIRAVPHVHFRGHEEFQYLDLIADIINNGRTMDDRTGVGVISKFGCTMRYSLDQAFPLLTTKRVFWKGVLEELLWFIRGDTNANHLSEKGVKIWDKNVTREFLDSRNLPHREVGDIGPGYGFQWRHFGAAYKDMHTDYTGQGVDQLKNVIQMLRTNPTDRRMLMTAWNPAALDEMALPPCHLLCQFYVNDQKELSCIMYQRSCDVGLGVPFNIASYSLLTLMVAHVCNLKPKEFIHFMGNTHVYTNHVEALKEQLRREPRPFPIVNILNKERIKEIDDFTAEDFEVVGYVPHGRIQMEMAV
Description: Inhibition of Toxoplasma gondii DHFR at 37 degC by spectrophotometry

[6] = target: Thymidylate synthase (Homo sapiens, UniProt P04818)
Description: Inhibition of human thymidylate synthase at 30 degC under pH 7.4 by spectrophotometry

[7] = target: T6, Dihydrofolate reductase (Mycobacterium avium, UniProt O30463)
T6 sequence (O30463 whole entry): T1 sequence (whole entry)
Description: Inhibition of Mycobacterium avium DHFR at 37 degC by spectrophotometry

[8] = target: T2, Dihydrofolate reductase (Pneumocystis carinii); assay: Inhibition of Pneumocystis carinii DHFR at 20 uM under 37 degC by spectrophotometry
[9] = target: T7, Dihydrofolate reductase (Rattus norvegicus) (UniProt Q920D2); assay: Inhibition of rat liver DHFR at 196 uM under 37 degC by spectrophotometry
T7 sequence (whole entry): T4 sequence (Q920D2 whole entry)

[10] = target: T1, Dihydrofolate reductase (Mycobacterium avium); conditions: 196 uM
[11] = target: T5, Bifunctional dihydrofolate reductase-thymidylate synthase; remark: listed apart in the source
[12] = target: T8, Dihydrofolate reductase (Homo sapiens, UniProt P00374)
T8 sequence (P00374 whole entry): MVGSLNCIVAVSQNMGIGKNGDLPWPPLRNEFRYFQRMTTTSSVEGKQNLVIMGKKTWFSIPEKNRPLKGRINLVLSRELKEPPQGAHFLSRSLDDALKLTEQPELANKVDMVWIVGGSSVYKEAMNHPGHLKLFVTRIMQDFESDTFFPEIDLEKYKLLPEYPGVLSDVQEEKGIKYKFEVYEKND
Description: Inhibition of human DHFR at 30 degC under pH 7.4 by spectrophotometry

[13] = target: T9, Dihydrofolate reductase (Escherichia coli, UniProt P0ABQ4)
T9 sequence (P0ABQ4 whole entry): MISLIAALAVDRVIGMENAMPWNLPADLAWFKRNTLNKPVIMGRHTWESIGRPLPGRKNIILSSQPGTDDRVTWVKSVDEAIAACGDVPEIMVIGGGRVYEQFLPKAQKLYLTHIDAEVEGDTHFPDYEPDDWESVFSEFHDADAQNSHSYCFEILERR
Description: Inhibition of Escherichia coli DHFR at 30 degC under pH 7.4 by spectrophotometry

[14] = target: T5, Bifunctional dihydrofolate reductase-thymidylate synthase; remark: listed apart in the source
Description: Inhibition of Toxoplasma gondii DHFR at 30 degC under pH 7.4 by spectrophotometry

Sequence of Thymidylate synthase (P04818 whole entry): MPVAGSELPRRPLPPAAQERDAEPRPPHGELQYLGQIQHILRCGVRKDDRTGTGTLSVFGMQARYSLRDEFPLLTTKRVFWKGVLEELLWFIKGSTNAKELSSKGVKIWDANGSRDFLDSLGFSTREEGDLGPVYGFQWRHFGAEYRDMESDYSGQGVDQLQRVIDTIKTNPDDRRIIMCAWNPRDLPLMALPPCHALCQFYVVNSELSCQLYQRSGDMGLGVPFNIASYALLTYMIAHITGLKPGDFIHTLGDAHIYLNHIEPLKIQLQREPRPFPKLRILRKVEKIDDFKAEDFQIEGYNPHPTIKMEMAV

SMILES: Cc1c(Sc2c(F)c(F)c(C(F)(F)F)c(F)c2F)oc2nc(N)nc(N)c12
- inhibition [1]: 8%
- inhibition [2]: 39%
- IC50 [3]: > 31 µM
- IC50 [4]: 39.1 µM

SMILES: Cc1c(Sc2cccc3ccccc23)oc2nc(N)nc(N)c12
- IC50 [3]: 8.6 µM
- IC50 [4]: > 83 µM
- IC50 [5]: > 83 µM

SMILES: Nc1nc(N)c2c(CCc3ccc(C(=O)N[C@@H](CCC(=O)O)C(=O)O)cc3)coc2n1
- IC50 [6]: > 200 µM

SMILES: Cc1cccc(C(C)C)c1Sc1oc2nc(N)nc(N)c2c1C
- IC50 [3]: 36.5 µM

SMILES: COc1ccc(OC)c(Sc2oc3nc(N)nc(N)c3c2C)c1
- IC50 [7]: 61.9 µM
- IC50 [3]: 24 µM
- IC50 [4]: 42.2 µM

SMILES: Cc1c(Sc2ccc3ccccc3c2)oc2nc(N)nc(N)c12
- IC50 [3]: > 12 µM
- IC50 [4]: > 12 µM
- IC50 [5]: > 12 µM

SMILES: CN(Cc1coc2nc(N)nc(N)c12)c1ccc(C(=O)N[C@@H](CCC(=O)O)C(=O)O)cc1 [FURO[2,3D]PYRIMIDINE ANTIFOLATE]
- IC50 [6]: > 200 µM

SMILES: COc1cccc(Sc2oc3nc(N)nc(N)c3c2C)c1
- IC50 [7]: 28.4 µM
- IC50 [3]: 25.2 µM
- IC50 [4]: 51.3 µM

SMILES: COc1ccc(Sc2oc3nc(N)nc(N)c3c2C)cc1
- IC50 [7]: 25.5 µM
- IC50 [3]: 34.7 µM
- IC50 [4]: 61.9 µM

SMILES: COc1ccc(Sc2oc3nc(N)nc(N)c3c2C)cc1OC
- IC50 [7]: 16.3 µM
- IC50 [3]: 36.4 µM
- IC50 [4]: 66.6 µM

SMILES: Cc1cccc(C)c1Sc1oc2nc(N)nc(N)c2c1C
- inhibition [8]: 27%
- inhibition [9]: 41%
- IC50 [3]: > 20 µM
- IC50 [4]: > 196 µM
- IC50 [5]: 19.7 µM
- inhibition [10]: 20%

SMILES: Cc1c(Sc2c(Cl)cccc2Cl)oc2nc(N)nc(N)c12
- IC50 [3]: 60 µM
- IC50 [4]: 14.4 µM

SMILES: COc1ccccc1Sc1oc2nc(N)nc(N)c2c1C
- IC50 [7]: 23.9 µM
- IC50 [3]: 20.3 µM
- IC50 [4]: 55.6 µM

SMILES: Nc1nc(N)c2c(CNc3ccc(C(=O)N[C@@H](CCC(=O)O)C(=O)O)cc3)coc2n1
- IC50 [6]: > 200 µM

SMILES: Cc1c(Sc2ccc(C(=O)N[C@@H](CCC(=O)O)C(=O)O)cc2)oc2nc(N)nc(N)c12
- IC50 [11]: 27 µM
- IC50 [7]: 0.00973 µM
- IC50 [12]: 4 µM
- IC50 [13]: 0.02 µM
- IC50 [14]: 2.2 µM
- IC50 [3]: 0.078 µM
- IC50 [4]: 20.5 µM
- IC50 [5]: 12 µM
